From patent publication US10919841B2, “Monoamine reuptake inhibitors” (Research Triangle Institute, priority 2009, dated 2021)
“Also recorded” adds a separate entry of the source. Like-named read-outs stand apart in the source and are kept apart here.

Tests used:
(h)SERT [1] = target: T1, (h)SERT (Homo sapiens, UniProt P31645); experiment: block of [3H]serotonin reuptake in HEK-(h)SERT cells; assay type: cell-based
T1 construct: expressed in transfected cells; host or cells: HEK293

rats [2] = experiment: cocaine discrimination (2-lever operant), i.p. administration; conditions: for responders at 10 mg/kg / responders at 25 mg/kg / responders at 50 mg/kg / responders at 100 mg/kg / responders at 5 mg/kg / ED50: Rattus norvegicus, ip; for responders at 10 mg/kg / responders at 25 mg/kg / responders at 50 mg/kg / responders at 100 mg/kg / responders at 5 mg/kg: read-out: % cocaine lever responding; for ED50: read-out: Full Generalization ED50
(h)NET [3] = target: T2, (h)NET (Homo sapiens, UniProt P23975); experiment: competition binding with [125I]RTI-55 at (h)NET stably expressed in HEK293 cells; conditions: read-out: Binding, Ki NET; mean ± standard error of three independent experiments
(h)DAT [4] = target: T3, (h)DAT (Homo sapiens, UniProt Q01959); experiment: block of [3H]dopamine reuptake in HEK-(h)DAT cells; assay type: cell-based
T3 construct: expressed in transfected cells

(h)NET [5] = target: T2, (h)NET; experiment: block of [3H]norepinephrine reuptake in HEK-(h)NET cells; conditions: for times better as NE uptake inhibitors than bupropion: relative to bupropion
(h)SERT [6] = target: T1, (h)SERT; conditions: read-out: Binding, Ki SERT
mice [7] = experiment: locomotor activity, 8-h time course protocol; assay type: in vivo; conditions: for locomotor stimulant activity across the 1-h and 8-h protocols, in words: 1-h and 8-h tests compared; for Emax / ED50: Mus musculus; for Emax: read-out: Locomotor Activity 8-Hour % Peak Cocaine, percent of cocaine's maximal effect, 30 min period of maximum stimulation; for ED50: read-out: Locomotor Activity 8-Hour ED50; for Locomotor Activity 8-Hour Time, min Period, length: duration of locomotor activity; for Locomotor Activity 8-Hour Time, min Period, max: time period of maximum effect
mice [8] = experiment: locomotor activity, 1-h observation protocol; assay type: in vivo; conditions: for Locomotor Activity 1-Hour ED50 / ED50: dose to produce 50% of the compound's maximal effect, 1-h; for Emax / ED50: Mus musculus; for Emax: 0.5 h, read-out: Locomotor Activity 1-Hour % Peak Cocaine
(h)DAT [9] = target: T3, (h)DAT; experiment: competition binding with [125I]RTI-55 at (h)DAT stably expressed in HEK293 cells; conditions: mean ± standard error of three independent experiments
serotonin transporter = serotonin transporter (Rattus norvegicus, UniProt P31652); experiment: 5-HT releasing/substrate activity using rat brain synaptosomes
rats [10] = experiment: cocaine discrimination time-course study, oral administration; conditions: for ED50: Rattus norvegicus, po, 0.75 h; for generalization to cocaine: p.o.
[11] = read-out: Uptake, IC50 [3H]5-HT
[12] = [3H]DA, read-out: IC50 for DA uptake inhibition
[13] = dose to produce 50% of the compound's maximal effect, 8-h
[14] = mean ± standard error of three independent experiments
[15] = mean ± standard error of three independent experiments, read-out: Uptake, IC50 [3H]DA
[16] = read-out: IC50 for NE uptake inhibition, [3H]NE

T3 sequence (Q01959 whole entry): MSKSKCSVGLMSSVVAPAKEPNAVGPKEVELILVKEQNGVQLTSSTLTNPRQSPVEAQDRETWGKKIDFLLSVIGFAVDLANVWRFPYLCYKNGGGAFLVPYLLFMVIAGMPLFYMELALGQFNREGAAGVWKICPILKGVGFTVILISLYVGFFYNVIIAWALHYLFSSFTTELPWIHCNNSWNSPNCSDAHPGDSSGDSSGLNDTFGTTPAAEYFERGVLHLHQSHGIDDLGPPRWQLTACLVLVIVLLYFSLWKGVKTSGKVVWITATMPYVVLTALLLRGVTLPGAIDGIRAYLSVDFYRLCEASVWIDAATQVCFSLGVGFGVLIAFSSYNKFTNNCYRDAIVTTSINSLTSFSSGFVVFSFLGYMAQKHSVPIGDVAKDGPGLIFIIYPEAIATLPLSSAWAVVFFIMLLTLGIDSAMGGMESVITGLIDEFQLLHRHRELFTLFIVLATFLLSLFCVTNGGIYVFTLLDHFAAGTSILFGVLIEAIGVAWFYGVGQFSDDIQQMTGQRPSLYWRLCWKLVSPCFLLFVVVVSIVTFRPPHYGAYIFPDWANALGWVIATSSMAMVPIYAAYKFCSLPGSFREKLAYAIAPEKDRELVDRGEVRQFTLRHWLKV
serotonin transporter, sequence (P31652 whole entry): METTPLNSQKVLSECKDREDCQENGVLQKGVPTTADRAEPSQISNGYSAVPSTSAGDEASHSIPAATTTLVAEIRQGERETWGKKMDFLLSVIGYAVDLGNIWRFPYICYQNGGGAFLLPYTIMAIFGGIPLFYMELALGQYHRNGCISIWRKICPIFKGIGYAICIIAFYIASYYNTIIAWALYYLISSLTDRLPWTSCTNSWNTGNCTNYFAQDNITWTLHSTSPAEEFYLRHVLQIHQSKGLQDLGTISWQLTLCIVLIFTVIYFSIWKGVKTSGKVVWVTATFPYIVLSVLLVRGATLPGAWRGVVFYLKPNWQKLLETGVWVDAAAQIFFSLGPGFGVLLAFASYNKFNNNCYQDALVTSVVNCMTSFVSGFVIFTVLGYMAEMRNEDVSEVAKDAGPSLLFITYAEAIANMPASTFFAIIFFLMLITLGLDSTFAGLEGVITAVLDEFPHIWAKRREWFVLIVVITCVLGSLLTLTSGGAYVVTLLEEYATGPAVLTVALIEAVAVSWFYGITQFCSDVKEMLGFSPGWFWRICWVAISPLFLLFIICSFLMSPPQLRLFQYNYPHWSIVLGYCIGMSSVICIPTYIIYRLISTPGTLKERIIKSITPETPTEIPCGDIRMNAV
T2 sequence (P23975 whole entry): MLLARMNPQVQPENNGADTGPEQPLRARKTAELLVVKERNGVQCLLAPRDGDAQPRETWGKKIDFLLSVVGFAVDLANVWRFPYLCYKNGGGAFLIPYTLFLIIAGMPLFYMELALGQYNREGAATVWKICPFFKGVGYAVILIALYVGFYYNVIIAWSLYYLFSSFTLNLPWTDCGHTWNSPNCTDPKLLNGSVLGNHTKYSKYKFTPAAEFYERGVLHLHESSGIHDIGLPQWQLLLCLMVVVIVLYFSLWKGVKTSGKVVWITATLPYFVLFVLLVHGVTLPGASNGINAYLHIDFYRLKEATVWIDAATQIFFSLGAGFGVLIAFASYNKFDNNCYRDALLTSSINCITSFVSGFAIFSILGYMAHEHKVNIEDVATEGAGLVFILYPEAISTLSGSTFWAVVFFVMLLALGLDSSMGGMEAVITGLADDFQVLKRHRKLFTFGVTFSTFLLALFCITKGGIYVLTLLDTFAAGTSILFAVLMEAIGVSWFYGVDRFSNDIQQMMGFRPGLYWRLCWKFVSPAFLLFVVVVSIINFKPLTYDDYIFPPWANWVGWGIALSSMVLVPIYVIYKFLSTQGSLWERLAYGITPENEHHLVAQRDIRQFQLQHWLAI
T1 sequence (P31645 whole entry): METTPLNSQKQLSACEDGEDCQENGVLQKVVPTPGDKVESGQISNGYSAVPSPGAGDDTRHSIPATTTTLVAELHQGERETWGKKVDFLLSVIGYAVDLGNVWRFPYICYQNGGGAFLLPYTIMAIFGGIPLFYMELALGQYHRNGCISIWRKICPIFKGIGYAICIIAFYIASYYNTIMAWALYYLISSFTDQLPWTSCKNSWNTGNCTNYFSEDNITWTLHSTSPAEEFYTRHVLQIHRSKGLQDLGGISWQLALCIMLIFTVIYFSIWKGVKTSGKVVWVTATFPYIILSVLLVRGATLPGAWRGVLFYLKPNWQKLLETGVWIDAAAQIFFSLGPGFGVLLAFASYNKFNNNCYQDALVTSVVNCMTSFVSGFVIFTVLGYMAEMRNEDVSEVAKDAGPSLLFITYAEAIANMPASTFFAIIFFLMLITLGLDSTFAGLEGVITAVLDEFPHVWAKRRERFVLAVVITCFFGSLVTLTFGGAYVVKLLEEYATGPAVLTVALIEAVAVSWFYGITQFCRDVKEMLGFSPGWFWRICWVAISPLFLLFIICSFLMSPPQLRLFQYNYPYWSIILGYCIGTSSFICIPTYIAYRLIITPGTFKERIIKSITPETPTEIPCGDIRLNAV

SMILES: CC(C(=O)c1cccc(Cl)c1)N1CCCCC1 (centres unmarked) [Compound 2ff, 2-Piperidino-3′-chloropropiophenone]
- IC50 ((h)SERT [1]; [11]): 0.97 µM
- responders at 10 mg/kg (rats [2]): 6%
- responders at 25 mg/kg (rats [2]): 17%
- responders at 50 mg/kg (rats [2]): 33%
- responders at 100 mg/kg (rats [2]): 34%
- Ki ((h)NET [3]): 4760 nM
- IC50 ((h)DAT [4]; [12]): 1.03 µM
- IC50 ((h)NET [5]; read-out: Uptake, IC50 [3H]NE, mean ± standard error of three independent experiments): 4.8 µM
- Ki ((h)SERT [6]): 5480 nM
- locomotor stimulant activity across the 1-h and 8-h protocols, in words (mice [7]): inactive in the 1-h test but showed weak stimulant activity in the 8-h protocol
- Emax (mice [7]): 45%
- ED50 (mice [7]; [13]): 15 mg/kg
- Locomotor Activity 8-Hour Time, min Period, length (mice [7]): 470 min
- onset and duration of locomotor activity, in words (mice [7]; mouse, in vivo): very slow onset of stimulatory activity
- Locomotor Activity 1-Hour ED50 (mice [8]): NE^f
- Ki ((h)DAT [9]): 1150 nM

SMILES: CC(C)(C)NC(CCC1CCCCC1)C(=O)c1cccc(Cl)c1 (centres unmarked) [Compound 2u, 2-(N-tert-Butylamino)-3′-chlorophenyl-4-cyclohexylbutanophenone]
- IC50 ((h)SERT [1]; bound given in μM, read-out: Uptake, IC50 [3H]5-HT): > 10 µM
- % cocaine lever responding (rats [2]; rats, IP, dose 5 mg/kg): 0%
- % cocaine lever responding (rats [2]; rats, IP, dose 10 mg/kg): 0%
- % cocaine lever responding (rats [2]; rats, IP, dose 25 mg/kg): 70%
- Comments (response rate) (rats [2]; rats, IP, response rate relative to vehicle control): B^b
- Ki ((h)NET [3]): 3800 nM
- IC50 ((h)DAT [4]; [12]): > 10 µM
- IC50 ((h)DAT [4]; bound given in μM, read-out: Uptake, IC50 [3H]DA): > 10 µM
- IC50 ((h)NET [5]; read-out: Uptake, IC50 [3H]NE, bound given in μM): > 10 µM
- Ki ((h)SERT [6]; [14]): 6200 nM
- locomotor stimulant activity across the 1-h and 8-h protocols, in words (mice [7]): inactive in the 1-h test but showed weak stimulant activity in the 8-h protocol
- Locomotor Activity 8-Hour ED50 (mice [7]; [13]): 15.3 mg/kg
- Locomotor Activity 8-Hour Time, min Period, length (mice [7]): 60 to 160 min
- Locomotor Activity 8-Hour % Peak Cocaine (mice [7]; percent of cocaine's maximal effect, 30 min period of maximum stimulation): 47%
- Locomotor Activity 8-Hour Time, min Period, max (mice [7]): 60 to 90 min
- Locomotor Activity 1-Hour ED50 (mice [8]): NE^f
- Ki ((h)DAT [9]): 1700 nM

SMILES: CC(NC1CC1)C(=O)c1cccc(Br)c1 (centres unmarked)
- EC50 (serotonin transporter): 383 ± 56 nM

SMILES: CCCC(NC(C)(C)C)C(=O)c1ccc(Cl)c(Cl)c1 (centres unmarked) [Compound 2bb, 2-(tert-Butylamino)-3′,4′-dichloropentanophenone]
- IC50 ((h)SERT [1]; [11]): 1.58 µM
- responders at 5 mg/kg (rats [2]): 1%
- responders at 10 mg/kg (rats [2]): 17%
- responders at 25 mg/kg (rats [2]): 10%
- ED50 (rats [2]): 6.95 mg/kg
- Ki ((h)NET [3]): 520 nM
- ED50 (rats [10]): 17.3 mg/kg
- DA uptake inhibition, in words ((h)DAT [4]): slightly lower IC50 values than 2j
- IC50 ((h)DAT [4]; [15]): 0.084 µM
- IC50 ((h)NET [5]; [16]): 0.043 µM
- times better as NE uptake inhibitors than bupropion ((h)NET [5]): 34 times
- Ki ((h)SERT [6]): 842 nM
- locomotor stimulant activity across the 1-h and 8-h protocols, in words (mice [7]): moderate activity in the 1-h test with increased activity in the time-course study
- Emax (mice [7]): 100%
- ED50 (mice [7]; [13]): 35 mg/kg
- Locomotor Activity 8-Hour Time, min Period, length (mice [7]): 470 min
- Locomotor Activity 8-Hour Time, min Period, max (mice [7]): 0 to 30 min
- Emax (mice [8]): 49%
- ED50 (mice [8]): 18.1 mg/kg
- Ki ((h)DAT [9]): 43.7 nM

SMILES: CC(NC1CC1)C(=O)c1ccc(Cl)c(Cl)c1 (centres unmarked)
- EC50 (serotonin transporter): 148 ± 35 nM

SMILES: CC(NC1CC1)C(=O)c1cccc(Cl)c1 (centres unmarked) [Compound 2x, 2-(N-Cyclopropylamino)-3′-chloropropiophenone]
- IC50 ((h)SERT [1]; read-out: IC50 for 5HT uptake inhibition): 3.18 µM
- responders at 5 mg/kg (rats [2]): 6%
- responders at 10 mg/kg (rats [2]): 67%
- responders at 25 mg/kg (rats [2]): 34%
- responders at 50 mg/kg (rats [2]): 17%
- responders at 100 mg/kg (rats [2]): 17%
- cocaine-appropriate responding (partial generalization) (rats [2]; i.p., 5 mg/kg): 67%
- cocaine-appropriate responding (rats [2]; i.p., 10 mg/kg): 67%
- response rate, in words (rats [2]; i.p., dose range given in the value): affected response rate at 25-100 mg/kg
- EC50 (serotonin transporter): 283 nM
- Ki ((h)NET [3]): 4000 nM
- ED50 (rats [10]): 13.3 mg/kg
- generalization to cocaine (rats [10]; 45 min, 10 mg/kg): partial generalization
- generalization to cocaine (rats [10]; 45 min, 25 mg/kg): partial generalization
- generalization to cocaine (rats [10]; 90 min, 25 mg/kg): full generalization
- generalization to cocaine (rats [10]; 180 min, 25 mg/kg): full generalization
- IC50 ((h)DAT [4]; [12]): 0.265 µM
- times more potent than bupropion as DA uptake inhibitor ((h)DAT [4]; relative to bupropion): 3.6 times
- IC50 ((h)NET [5]; [16]): 2.15 µM
- Ki ((h)SERT [6]): 3420 nM
- locomotor stimulant activity across the 1-h and 8-h protocols, in words (mice [7]): strong stimulants in both studies
- Emax (mice [7]): 94%
- ED50 (mice [7]; [13]): 14.7 mg/kg
- Locomotor Activity 8-Hour Time, min Period, length (mice [7]): 350 min
- Locomotor Activity 8-Hour Time, min Period, max (mice [7]): 0 to 30 min
- Emax (mice [8]): 94%
- ED50 (mice [8]): 14.7 mg/kg
- Ki ((h)DAT [9]): 1150 nM

SMILES: CC(NC1CC1)C(=O)c1ccc(Cl)cc1 (centres unmarked)
- EC50 (serotonin transporter): 2700 ± 314 nM

SMILES: COc1cccc(C(=O)C(C)NC2CC2)c1 (centres unmarked)
- EC50 (serotonin transporter): 676 ± 197 nM

SMILES: CCC(NC(C)(C)C)C(=O)c1ccc(Cl)c(Cl)c1 (centres unmarked) [Compound 2aa, 2-(tert-Butylamino)-3′,4′-dichlorobutyrophenone]
- IC50 ((h)SERT [1]; mean ± standard error of three independent experiments, read-out: Uptake, IC50 [3H]5-HT): 0.79 µM
- responders at 5 mg/kg (rats [2]): 1%
- responders at 10 mg/kg (rats [2]): 10%
- responders at 25 mg/kg (rats [2]): 10%
- ED50 (rats [2]): 15 mg/kg
- Ki ((h)NET [3]): 2240 nM
- DA uptake inhibition, in words ((h)DAT [4]): slightly lower IC50 values than 2j
- IC50 ((h)DAT [4]; [15]): 0.175 µM
- IC50 ((h)NET [5]; [16]): 0.135 µM
- times better as NE uptake inhibitors than bupropion ((h)NET [5]): 10 times
- Ki ((h)SERT [6]; [14]): 860 nM
- locomotor stimulant activity across the 1-h and 8-h protocols, in words (mice [7]): weak stimulants in both tests; also recorded: moderate activity in the 1-h test with increased activity in the time-course study
- Emax (mice [7]): 84%
- ED50 (mice [7]; [13]): 42.2 mg/kg
- Locomotor Activity 8-Hour Time, min Period, length (mice [7]): 60 min
- Locomotor Activity 8-Hour Time, min Period, max (mice [7]): 0 to 30 min
- Emax (mice [8]): 41%
- ED50 (mice [8]): 50.3 mg/kg
- Ki ((h)DAT [9]): 278 nM

SMILES: Cc1ccc(C(=O)C(C)NC2CC2)cc1Cl (centres unmarked)
- EC50 (serotonin transporter): 139 ± 30 nM

SMILES: Cc1ccc(C(=O)C(C)NC2CC2)cc1 (centres unmarked)
- EC50 (serotonin transporter): 707 ± 69 nM

SMILES: Cc1cccc(C(=O)C(C)NC2CC2)c1 (centres unmarked)
- EC50 (serotonin transporter): 890 ± 63 nM
